Laboratory results as given in patent US9969698B2, “Quinoxalinyl-piperazinamide methods of use” (REXAHN PHARMACEUTICALS, INC., priority 2015, dated 2018).
Values joined by “and” are separate entries in the source; they are usually repeats but may differ in a detail not shown here. Identical values can stand only once. Like-named read-outs stand apart in the source and are kept apart here.

Assay: Human pharmacokinetics, dose-ranging study
Type: in vivo
Method: In a dose-ranging study, the pharmacokinetics (PK), safety and tolerability of RX-5902 at various oral doses were evaluated. Subjects with advanced or metastatic solid tumors were administered capsules containing RX-5902 at daily doses of 25-775 mg once weekly, 250-300 mg three times a week, 150-300 mg five times a week, or 300-350 mg seven times a week of RX-5902 for up to 6 dosing cycles. Each cycle consisting of 1-5 doses of RX-5902 per week for 3 weeks followed by 1 week of rest, or 5-7 doses of RX-5902 per week for 4 weeks without any rest per 4-week cycle. All but one subject had fasted from food for at least 8 hours before administration. One subject received 300 mg RX-5902 in fed state. Plasma concentrations were measured on Days 1 and 15, for 48 hrs, using a validated LC-MS/MS assay, and noncompartmental pharmacokinetic parameters were calculated using Phoenix WinNonlin, Version 6.4.
Preliminary PK data after a single administration is presented in FIG. 1 (for Subjects #1-11) and Table 3.

[1] = oral capsule, 300 mg, 1 per week, Day 1, fasted
[2] = oral capsule, 300 mg, 5 per week, Day 1, fasted
[3] = oral capsule, 775 mg, 1 per week, Day 1, fasted

## COc1cc(OC)cc(N2CCN(C(=O)Nc3nc4cc(F)ccc4nc3OC)CC2)c1 [RX-5902, 4-(3,5-dimethoxyphenyl)-N-(7-fluoro-3-methoxyquinoxalin-2-yl)piperazine-1-carboxamide]
human, plasma, po, 300 mg, oral capsule, 300 mg, 1 per week, Day 1, fed, read-out: AUC0-24
  AUC(0-t): 8620 ng·h/mL
human, plasma, po, 300 mg, oral capsule, 300 mg, 1 per week, Day 1, fed, read-out: AUC0-48
  AUC(0-t): 10700 ng·h/mL
human, plasma, po, 300 mg, oral capsule, 300 mg, 1 per week, Day 1, fed, read-out: Cmax
  Cmax: 779 ng/mL
human, plasma, po, 300 mg, oral capsule, 300 mg, 1 per week, Day 1, fed, read-out: T1/2 (converted)
  half-life: 11.9 h
human, plasma, po, 300 mg, oral capsule, 300 mg, 1 per week, Day 1, fed, read-out: Tmax
  Tmax: 4 h
human, plasma, po, 300 mg, oral capsule, 300 mg, 3 per week, Day 1, fasted, read-out: AUC0-24
  AUC(0-t): 3850 ng·h/mL
human, plasma, po, 300 mg, oral capsule, 300 mg, 3 per week, Day 1, fasted, read-out: AUC0-48
  AUC(0-t): 4560 ng·h/mL
human, plasma, po, 300 mg, oral capsule, 300 mg, 3 per week, Day 1, fasted, read-out: Cmax
  Cmax: 288 ng/mL
human, plasma, po, 300 mg, oral capsule, 300 mg, 3 per week, Day 1, fasted, read-out: T1/2 (converted)
  half-life: 10.3 h
human, plasma, po, 300 mg, oral capsule, 300 mg, 3 per week, Day 1, fasted, read-out: Tmax
  Tmax: 6 h
human, plasma, po, 300 mg, oral capsule, 300 mg, 3 per week, Day 15, fasted, read-out: AUC0-24
  AUC(0-t): 3050 ng·h/mL
human, plasma, po, 300 mg, oral capsule, 300 mg, 3 per week, Day 15, fasted, read-out: AUC0-48
  AUC(0-t): 4140 ng·h/mL
human, plasma, po, 300 mg, oral capsule, 300 mg, 3 per week, Day 15, fasted, read-out: Cmax
  Cmax: 301 ng/mL
human, plasma, po, 300 mg, oral capsule, 300 mg, 3 per week, Day 15, fasted, read-out: Tmax
  Tmax: 2 h
human, plasma, po, 300 mg, oral capsule, 300 mg, 5 per week, Day 1, fasted, read-out: AUC0-24
  AUC(0-t): 3800 ng·h/mL
human, plasma, po, 300 mg, oral capsule, 300 mg, 5 per week, Day 1, fasted, read-out: Cmax
  Cmax: 317 ng/mL
human, plasma, po, 300 mg, oral capsule, 300 mg, 5 per week, Day 15, fasted, read-out: AUC0-24
  AUC(0-t): 3840 ng·h/mL
human, plasma, po, 300 mg, oral capsule, 300 mg, 5 per week, Day 15, fasted, read-out: Tmax
  Tmax: 1.5 h
human, plasma, po, 300 mg, oral capsule, 300 mg, 7 per week, Day 1, fasted, read-out: AUC0-24
  AUC(0-t): 2990 ng·h/mL
human, plasma, po, 300 mg, oral capsule, 300 mg, 7 per week, Day 1, fasted, read-out: AUC0-48
  AUC(0-t): 3180 ng·h/mL
human, plasma, po, 300 mg, oral capsule, 300 mg, 7 per week, Day 15, fasted, read-out: Cmax
  Cmax: 1250 ng/mL
human, plasma, po, 300 mg, oral capsule, 300 mg, 7 per week, Day 15, fasted, read-out: Tmax
  Tmax: 6 h
human, plasma, po, 350 mg, oral capsule, 350 mg, 7 per week, Day 1, fasted, read-out: AUC0-24
  AUC(0-t): 4820 ng·h/mL
human, plasma, po, 350 mg, oral capsule, 350 mg, 7 per week, Day 1, fasted, read-out: AUC0-48
  AUC(0-t): 4960 ng·h/mL
human, plasma, po, 350 mg, oral capsule, 350 mg, 7 per week, Day 1, fasted, read-out: Cmax
  Cmax: 750 ng/mL
human, plasma, po, 350 mg, oral capsule, 350 mg, 7 per week, Day 1, fasted, read-out: Tmax
  Tmax: 1.5 h
human, plasma, po, 425 mg, oral capsule, 425 mg, 1 per week, Day 1, fasted, read-out: AUC0-24
  AUC(0-t): 9320 ng·h/mL
human, plasma, po, 425 mg, oral capsule, 425 mg, 1 per week, Day 1, fasted, read-out: AUC0-48
  AUC(0-t): 14700 ng·h/mL
human, plasma, po, 425 mg, oral capsule, 425 mg, 1 per week, Day 1, fasted, read-out: Cmax
  Cmax: 660 ng/mL
human, plasma, po, 425 mg, oral capsule, 425 mg, 1 per week, Day 1, fasted, read-out: Tmax
  Tmax: 2 h
human, plasma, po, 575 mg, oral capsule, 575 mg, 1 per week, Day 1, fasted, read-out: AUC0-24
  AUC(0-t): 6820 ng·h/mL
human, plasma, po, 575 mg, oral capsule, 575 mg, 1 per week, Day 1, fasted, read-out: AUC0-48
  AUC(0-t): 10100 ng·h/mL
human, plasma, po, 575 mg, oral capsule, 575 mg, 1 per week, Day 1, fasted, read-out: Cmax
  Cmax: 707 ng/mL
human, plasma, po, 575 mg, oral capsule, 575 mg, 1 per week, Day 1, fasted, read-out: Tmax
  Tmax: 4 h
human, plasma, po, 775 mg, oral capsule, 775 mg, 1 per week, Day 1, fasted, read-out: AUC0-24
  AUC(0-t): 3540 ng·h/mL
human, plasma, po, 775 mg, oral capsule, 775 mg, 1 per week, Day 1, fasted, read-out: AUC0-48
  AUC(0-t): 5010 ng·h/mL
human, plasma, po, 775 mg, oral capsule, 775 mg, 1 per week, Day 1, fasted, read-out: Cmax
  Cmax: 487 ng/mL
human, plasma, po, 775 mg, oral capsule, 775 mg, 1 per week, Day 1, fasted, read-out: T1/2 (converted)
  half-life: 9.7 h
human, plasma, po, oral capsules, all subjects, after dosing, read-out: Tmax, observed range
  Tmax: 1 to 6 h
human, plasma, po, oral capsules, all subjects, read-out: Apparent terminal T1/2, mean value (converted)
  half-life: 13 h
human, plasma, po, oral capsules, all subjects, read-out: Apparent terminal T1/2, range
  half-life: 5.8 to 27.6 h
[1]
  AUC0-24: 4170 ng·h/mL
  AUC0-48: 5552 ng·h/mL
  Cmax: 452 ng/mL
  T1/2: 15.6 h
[2]
  AUC0-24: 4607 ng·h/mL and 3855 ng·h/mL
  Cmax: 549 ng/mL and 419 ng/mL and 624 ng/mL
Oral capsule, 300 mg, 5 per week, Day 15, fasted
  AUC0-24: 4878 ng·h/mL
[3]
  AUC0-24: 6925 ng·h/mL
  AUC0-48: 8126 ng·h/mL
  Cmax: 654 ng/mL
Oral capsules, sometimes displayed
  apparent, short lag time: 0.25 h
Oral capsules, usually
  share of AUC0-t (0-48 hours) observed by 24 hours: over 75%
